Measurements published in patent US20090123419A1, “TREATMENT OF UTERINE CANCER AND OVARIAN CANCER WITH A PARP INHIBITOR ALONE OR IN COMBINATION WITH ANTI-TUMOR AGENTS” (BiPar Sciences, priority 2007, published 2009).

What was measured:
PARP = target: T1, PARP (Homo sapiens, UniProt P09874); assay: PARP activity assay in peripheral blood mononuclear cells (PBMCs) from patients; format: in vivo; details: for PARP inhibition in PBMCs: after multiple dosing with BA doses of 2.8 mg/kg or higher, FIG. 5, 2.8 mg/kg
T1 construct: endogenous in cells; host or cells: peripheral blood mononuclear cells from patients dosed with BA
Description: Whole blood is collected into EDTA vacutainers and human PBMCs are obtained by BD Vacutainer™ CPT™ Cell Preparation kit according to the manufacturer's instructions (BD Vacutainer™, REF 362760). Tumor samples are collected in a sterile container and placed immediately on ice. Within 30 minutes, tumor samples are snap-frozen in liquid nitrogen and stored at −80° C. until homogenized for analysis. The specimen is defrosted on ice and the wet weight is documented. The tissue is homogenized using isotonic buffer [7 mmol/L HEPES, 26 mmol/L KCl, 0.1 mmol/L dextran, 0.4 mmol/L EGTA, 0.5 mmol/L MgCl2, 45 mmol/L sucrose (pH 7.8)]. The homogenate is kept on ice throughout the process, and homogenization is done in 10-second bursts to prevent undue warming of the sample. Unless assayed on the day of homogenization, samples are refrozen to −80° C. and stored at this temperature until analyzed.
Cell preparations are defrosted rapidly at room temperature and washed twice in ice-cold PBS. […] Maximally stimulated PARP activity is measured in replicate samples of 20,000 cells in a reaction mixture containing […] NAD+ and 10 mg/mL oligonucleotide in a reaction buffer of 100 mmol/L Tris-HCl, 120 mmol/L MgCl2 (pH 7.8) in a final volume of […] as described previously (24) at 26° C. in an oscillating water bath. […] Purified PAR standards are loaded onto each membrane (0-25 pmol monomer equivalent) to generate a standard curve and allow quantification. […] Chemiluminesence detected during a 5-minute exposure is measured using a Fuji LAS3000 UV Illuminator (Raytek, Sheffield, United Kingdom) and digitized using the imaging software (Fuji LAS Image version 1.1, Raytek). The acquired image is analyzed using Aida Image Analyzer (version 3.28.001), and results are expressed in LAU/mm2. Three background areas on the exposed blot are measured and the mean of the background signal from the membrane is subtracted from all results. The PAR polymer standard curve is analyzed using an unweighted one-site binding nonlinear regression model and unknowns read off the standard curve so generated. […]

advanced solid tumors = assay: Phase 1b study of BA in combination with chemotherapy, clinical response via RECIST; format: in vivo, human
Description: The protocol has been amended to evaluate BA in combination with chemotherapy in specific tumor types.
BA plus cytotoxic chemotherapy (CTX)
BA Dosing: • Twice weekly; i.v. infusion • Standard 3+3 design for BA dose escalation • Dose levels studied: 2.0, 2.8, 4.0, 5.6, 8.0, and up to 11.2 mg/kg
Clinical response via RECIST every 2 cycles
Subjects— 18 years old with a refractory, advanced solid tumor, ECOG PS of <=2, and adequate hematological, renal, and hepatic function
No restriction on number of prior chemotherapeutic regimens

[1] = Stability of solutions and drug product; format: physicochemical
[2] = test system: human OVCAR-3 (NIH-OVCAR-3) ovarian adenocarcinoma; assay: OVCAR-3 ovarian carcinoma xenograft efficacy study; format: in vivo, SCID mice
Description: The human OVCAR-3 (NIH-OVCAR-3) ovarian adenocarcinoma utilized in the study is maintained in athymic nude mice by serial engraftment. The human SW620 colon adenocarcinoma utilized in the study is maintained in nude mice by serial engraftment.
Tumor weight may be estimated with the assumption that 1 mg is equivalent to 1 mm^3 of tumor volume. Tumor size, in mm^3, was calculated from: […]
Oral group receives BA p.o. (orally) twice daily from D1 p.m. until D68 a.m. (b.i.d. to end, i.e. twice daily dosing for the duration of the study). Alzet model osmotic pumps are implanted on Days 1, 15, and 29. The pumps are pre-warmed for 1 hour at 37° C., and then implanted subcutaneously (s.c.) in the left flanks of isofluoraneanesthetized mice. Each pump delivers a total dose of 25 mg/kg/week of BA over 14 days. BA is administrated intraperitoneally (i.p.) 15 mg/kg respectively twice weekly.
Each animal is euthanized when its neoplasm reached the predetermined endpoint size (1,000 mm^3).
where: T=median TTE for a treatment group, C=median TTE for control Group 1.

T1 sequence (P09874 whole entry): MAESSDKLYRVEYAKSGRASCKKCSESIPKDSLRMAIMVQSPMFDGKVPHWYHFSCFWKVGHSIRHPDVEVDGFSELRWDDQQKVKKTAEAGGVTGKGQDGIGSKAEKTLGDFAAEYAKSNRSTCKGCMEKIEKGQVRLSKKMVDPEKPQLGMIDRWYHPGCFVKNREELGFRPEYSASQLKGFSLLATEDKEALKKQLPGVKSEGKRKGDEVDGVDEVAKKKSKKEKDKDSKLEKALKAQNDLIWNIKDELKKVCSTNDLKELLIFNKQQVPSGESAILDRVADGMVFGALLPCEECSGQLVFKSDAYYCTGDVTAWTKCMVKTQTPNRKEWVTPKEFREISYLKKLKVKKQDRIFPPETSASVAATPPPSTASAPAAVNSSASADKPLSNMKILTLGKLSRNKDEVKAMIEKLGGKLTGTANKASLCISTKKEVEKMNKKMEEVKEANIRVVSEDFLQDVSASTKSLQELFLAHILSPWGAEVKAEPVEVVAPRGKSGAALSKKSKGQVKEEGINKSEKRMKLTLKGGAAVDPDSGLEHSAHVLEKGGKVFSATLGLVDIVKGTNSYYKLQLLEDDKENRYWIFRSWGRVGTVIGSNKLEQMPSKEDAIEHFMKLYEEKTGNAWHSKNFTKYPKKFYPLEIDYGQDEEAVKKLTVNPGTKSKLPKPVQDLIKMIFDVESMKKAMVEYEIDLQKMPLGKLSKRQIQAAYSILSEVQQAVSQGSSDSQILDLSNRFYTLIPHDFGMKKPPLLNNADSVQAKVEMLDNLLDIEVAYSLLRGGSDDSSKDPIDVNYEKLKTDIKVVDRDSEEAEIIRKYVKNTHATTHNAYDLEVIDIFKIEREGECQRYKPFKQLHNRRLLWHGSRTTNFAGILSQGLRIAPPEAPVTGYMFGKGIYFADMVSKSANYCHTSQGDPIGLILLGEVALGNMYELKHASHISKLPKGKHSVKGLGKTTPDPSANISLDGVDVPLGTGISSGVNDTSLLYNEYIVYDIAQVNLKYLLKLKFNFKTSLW

SMILES: NC(=O)c1ccc(I)c([N+](=O)[O-])c1 [BA, 4-iodo-3-nitrobenzamide]
- PARP inhibition in PBMCs (PARP): significant and prolonged PARP inhibition
- PARP inhibition in PBMCs (PARP; listed as 4-iodo-3-nitrobenzamide): PARP inhibition
- biologically relevant dose that elicits significant and sustained PARP inhibition (PARP; at effective preclinical blood concentrations): 2.8 mg/kg
- subjects with stable disease for 2 cycles of treatment or more (advanced solid tumors; BA plus cytotoxic chemotherapy): Approximately 80%
- tumor response of a patient with advanced ovarian cancer (advanced solid tumors; after 4 cycles of BA in combination with topotecan, FIG. 4): partial response
- subjects demonstrating some clinical benefit (advanced solid tumors; of 66 subjects, BA plus cytotoxic chemotherapy): 53 subjects
- liver lesion (target lesion) size after treatment (advanced solid tumors; one ovarian cancer patient, 4 cycles BA with topotecan, from 4.6 cm): 1.5 cm
- CA 27-29 biomarker after treatment (advanced solid tumors; one ovarian cancer patient, 4 cycles BA with topotecan, from >300): < 200
- stability of BA dosing solution, time to administration after preparation ([1]; ambient (room) temperature, diluted in 0.9% NS or D5W): ≤ 8 h
- permitted storage of BA drug product ([1]; at 25° C., 10 mg/mL in 25% hydroxypropylbetacyclodextrin/10 mM phosphate buffer, pH 7.4): ≤ 24 h
- tumor growth ([2]; OVCAR-3 xenograft in SCID mice): significantly inhibits tumor growth
- survival compared with the untreated control ([2]; different routes of administration, FIG. 3): improves survival
